In patent publication US11712433B2, “Compositions comprising PKM2 modulators and methods of treatment using the same” (priority 2019, dated 2023):

Columns and labels:
A549 lung cancer cells = assay: A549 xenograft, traditional versus serine- and glycine-depleted diet (Example 4); assay type: in vivo, athymic nude mice; details: 100 mpk oral gavage qd x 21
Description: The traditional diet control was the Baker Amino Acid diet (catalog #5CC7, Test Diet) and the depleted diet was a modified Baker Amino Acid diet which compensated for serine and glycine depletion with increases in all remaining amino acids (catalog #5BJX, Test Diet).

A549 cells = assay: GSH-Glo glutathione levels in A549 cells (Example 10); assay type: cell-based; details: concentration of 10, 24 hours, relative to DMSO
Method: A549 cells were prepared according to Example 3 above. […] Cells were treated for 24 hours, and then glutathione levels were determined using a GSH-Glo assay kit and procedure from Promega (catalog #V6912).

MC38 tumors = assay: Metabolite levels in treated versus vehicle-treated MC38 tumors; assay type: in vivo, mice; details: treated compared to vehicle-treated MC38 tumors
Description: Potential downstream biomarkers, including metabolism, immune gene alterations and immune phenotyping are currently under evaluation using LC-MS/MS, NanoString and flow cytometry.

With `Nc1cccc(F)c1CN(CCC1CCS(=O)(=O)CC1)C(=O)c1cc(C(F)(F)F)n[nH]1` [compound of Structure (I)] the body weight (A549 lung cancer cells) was “no significant body weight reduction or fluctuation”, the tumor volume (A549 lung cancer cells; serine- and glycine-depleted diet versus traditional diet) was “best reduction of tumor volume” and the glutathione levels (A549 cells) was “decreased levels of glutathione”. The “levels of glucose 6-phosphate in tumors” value (MC38 tumors) was “decreased”, the “levels of glucose in tumors” value (MC38 tumors) was “Increased” and the “levels of lactate in tumors” value (MC38 tumors) was “decreased”. The “levels of phosphoenolpyruvate in tumors” value (MC38 tumors) was “decreased” and the “levels of phosphoglycerate in tumors” value (MC38 tumors) was “decreased”.
